In brackets after ≈: the same amount, converted by molar mass.
Key:
S. aureus ATCC 27660 = assay: MIC, NCCLS broth microdilution assay; assay type: cell-based, Staphylococcus aureus; conditions: S. aureus ATCC 27660, methicillin resistant strain (MRSA)
S. aureus ATCC 13709 = assay: MIC, NCCLS broth microdilution assay; assay type: cell-based, Staphylococcus aureus; conditions: S. aureus ATCC 13709, methicillin sensitive strain (MSSA)
Description: (§1) In vitro biological activity data were collected for a variety of microorganisms, including Bacillus cereus (ATCC 11778), Staphylococcus aureus (ATCC 33591; ATCC 27660, a methicillin resistant strain (MRSA); ATCC 13709, a methicillin sensitive strain (MSSA)), Escherichia coli (ATCC 25922), Enterococcus faecalis (ATCC 29212), Streptococcus pneumoniae (ATCC 49619; ATCC 51422, a penicillin resistant strain (PRSP)), Enterococcus faecium (ATCC 51559, a vancomycin resistant strain (VRE)), and Staphylococcus epidermidis (ATCC 12228).
(§2) The minimal inhibition concentration (MIC) of these compounds was determined using the National Committee for Clinical Laboratory Standards (NCCLS) broth microdilution assay in microtiter plates, as set forth in: (1) the guidelines of the National Committee for Clinical Laboratory Standards (NCCLS) Document M7-A4 (NCCLS, 1997); (2) the guidelines of the National Committee for Clinical Laboratory Standards (NCCLS) Document M11-A4 (NCCLS, 1997); and (3) the guidelines and reference method of the National Committee for Clinical Laboratory Standards (NCCLS) Document M27 -T (NCCLS, 1995).

S. aureus ATCC 33591 = assay: MIC, NCCLS broth microdilution assay; assay type: cell-based, Staphylococcus aureus; conditions: S. aureus ATCC 33591
Description: as §1, §2

E. faecalis ATCC 29212 = assay: MIC, NCCLS broth microdilution assay; assay type: cell-based, Enterococcus faecalis; conditions: E. faecalis ATCC 29212
S. pneumoniae ATCC 49619 = assay: MIC, NCCLS broth microdilution assay; assay type: cell-based, Streptococcus pneumoniae; conditions: S. pneumoniae ATCC 49619
B. cereus ATCC 11778 = assay: MIC, NCCLS broth microdilution assay; assay type: cell-based, Bacillus cereus; conditions: B. cereus ATCC 11778
C. albicans ATCC 38247 = assay: MIC, antifungal assay; assay type: cell-based, Candida albicans; conditions: C. albicans ATCC 38247
Description: In vitro biological activity data were collected for a variety of microorganisms, including Bacillus cereus (ATCC 11778), Staphylococcus aureus (ATCC 33591; ATCC 27660, a methicillin resistant strain (MRSA); ATCC 13709, a methicillin sensitive strain (MSSA)), Escherichia coli (ATCC 25922), Enterococcus faecalis (ATCC 29212), Streptococcus pneumoniae (ATCC 49619; ATCC 51422, a penicillin resistant strain (PRSP)), Enterococcus faecium (ATCC 51559, a vancomycin resistant strain (VRE)), and Staphylococcus epidermidis (ATCC 12228). Additionally, antifungal activity data were collected for Candida albicans (ATCC 38247).
The minimal inhibition concentration (MIC) of these compounds was determined using the National Committee for Clinical Laboratory Standards (NCCLS) broth microdilution assay in microtiter plates, as set forth in: (1) the guidelines of the National Committee for Clinical Laboratory Standards (NCCLS) Document M7-A4 (NCCLS, 1997); (2) the guidelines of the National Committee for Clinical Laboratory Standards (NCCLS) Document M11-A4 (NCCLS, 1997); and (3) the guidelines and reference method of the National Committee for Clinical Laboratory Standards (NCCLS) Document M27 -T (NCCLS, 1995). For antifungal assays, the method recommended in Murray, PR., 1995 Manual of Clinical Microbiology (ASM Press, Washington, D.C.), was employed.

E. coli ATCC 25922 = assay: MIC, NCCLS broth microdilution assay; assay type: cell-based, Escherichia coli; conditions: E. coli ATCC 25922

## CN(CCCN)CCCNc1ncccc1C(=O)Nc1ccc(-c2cc3ccccc3o2)nc1 [Compound A-39]
S. aureus ATCC 27660; Staphylococcus aureus, ATCC 27660 / MRSA, read-out: Minimum Inhibitory Concentration (MIC)
  MIC: 12 to 32 µg/mL (≈ 26.2 to 69.8 µM)
S. aureus ATCC 13709; Staphylococcus aureus, ATCC 13709 / MSSA, read-out: Minimum Inhibitory Concentration (MIC)
  MIC: 12 to 32 µg/mL (≈ 26.2 to 69.8 µM)
S. aureus ATCC 33591; Staphylococcus aureus, ATCC33591, read-out: Minimum Inhibitory Concentration (MIC)
  MIC: 12 to 32 µg/mL (≈ 26.2 to 69.8 µM)
E. faecalis ATCC 29212; Enterococcus faecalis, ATCC29212, read-out: Minimum Inhibitory Concentration (MIC)
  MIC: 12 to 32 µg/mL (≈ 26.2 to 69.8 µM)
S. pneumoniae ATCC 49619; Streptococcus pneumoniae, ATCC49619, read-out: Minimum Inhibitory Concentration (MIC)
  MIC: 12 to 32 µg/mL (≈ 26.2 to 69.8 µM)
B. cereus ATCC 11778; Bacillus cereus, ATCC11778, read-out: Minimum Inhibitory Concentration (MIC)
  MIC: 12 to 32 µg/mL (≈ 26.2 to 69.8 µM)
C. albicans ATCC 38247; Candida albicans, ATCC38247, read-out: Minimum Inhibitory Concentration (MIC)
  MIC: > 32 µg/mL
E. coli ATCC 25922; Escherichia coli, ATCC25922, read-out: Minimum Inhibitory Concentration (MIC)
  MIC: > 32 µg/mL

## O=C(Nc1ccc(-c2cc3ccccc3o2)cc1)c1cccnc1N1CCNCC1 [Compound A-20]
S. aureus ATCC 27660
  Minimum Inhibitory Concentration (MIC): ++ (4 < MIC < 12)
S. aureus ATCC 13709
  Minimum Inhibitory Concentration (MIC): ++ (4 < MIC < 12)
E. faecalis ATCC 29212
  Minimum Inhibitory Concentration (MIC): + (12 ≦ MIC ≦ 32)
S. pneumoniae ATCC 49619
  Minimum Inhibitory Concentration (MIC): + (12 ≦ MIC ≦ 32)
B. cereus ATCC 11778
  Minimum Inhibitory Concentration (MIC): + (12 ≦ MIC ≦ 32)
C. albicans ATCC 38247
  Minimum Inhibitory Concentration (MIC): ++ (4 < MIC < 12)
E. coli ATCC 25922
  Minimum Inhibitory Concentration (MIC): + (12 ≦ MIC ≦ 32)

## NCCOCCOCCNc1ncccc1C(=O)Nc1ccc(-c2cc3ccccc3o2)cc1 [Compound A-22]
S. aureus ATCC 27660
  Minimum Inhibitory Concentration (MIC): ++ (4 < MIC < 12)
S. aureus ATCC 13709
  Minimum Inhibitory Concentration (MIC): ++ (4 < MIC < 12)
E. faecalis ATCC 29212
  Minimum Inhibitory Concentration (MIC): ++ (4 < MIC < 12)
S. pneumoniae ATCC 49619
  Minimum Inhibitory Concentration (MIC): + (12 ≦ MIC ≦ 32)
B. cereus ATCC 11778
  Minimum Inhibitory Concentration (MIC): ++ (4 < MIC < 12)
C. albicans ATCC 38247
  Minimum Inhibitory Concentration (MIC): +++ (MIC ≦ 4)
E. coli ATCC 25922
  Minimum Inhibitory Concentration (MIC): >32 µg/mL

## O=C(Nc1ccc(-c2cc3ccccc3o2)cc1)c1cccnc1NCCCN1CCOCC1 [Compound A-16]
S. aureus ATCC 27660
  Minimum Inhibitory Concentration (MIC): +++ (MIC ≦ 4)
S. aureus ATCC 13709
  Minimum Inhibitory Concentration (MIC): +++ (MIC ≦ 4)
E. faecalis ATCC 29212
  Minimum Inhibitory Concentration (MIC): ++ (4 < MIC < 12)
S. pneumoniae ATCC 49619
  Minimum Inhibitory Concentration (MIC): + (12 ≦ MIC ≦ 32)
B. cereus ATCC 11778
  Minimum Inhibitory Concentration (MIC): >32 µg/mL
C. albicans ATCC 38247
  Minimum Inhibitory Concentration (MIC): + (12 ≦ MIC ≦ 32)
E. coli ATCC 25922
  Minimum Inhibitory Concentration (MIC): >32 µg/mL

## O=C(Nc1ccc(-c2cc3ccccc3o2)cc1)c1nsc(NCCN2CCNCC2)c1Cl [Compound A-1]
S. aureus ATCC 27660
  Minimum Inhibitory Concentration (MIC): +++ (MIC ≦ 4)
S. aureus ATCC 13709
  Minimum Inhibitory Concentration (MIC): +++ (MIC ≦ 4)
E. faecalis ATCC 29212
  Minimum Inhibitory Concentration (MIC): +++ (MIC ≦ 4)
S. pneumoniae ATCC 49619
  Minimum Inhibitory Concentration (MIC): + (12 ≦ MIC ≦ 32)
B. cereus ATCC 11778
  Minimum Inhibitory Concentration (MIC): +++ (MIC ≦ 4)
C. albicans ATCC 38247
  Minimum Inhibitory Concentration (MIC): + (12 ≦ MIC ≦ 32)
E. coli ATCC 25922
  Minimum Inhibitory Concentration (MIC): >32 µg/mL

## NCCCNc1ncccc1C(=O)Nc1ccc(-c2cc3ccccc3o2)cc1 [Compound A-9]
S. aureus ATCC 27660
  Minimum Inhibitory Concentration (MIC): +++ (MIC ≦ 4)
S. aureus ATCC 13709
  Minimum Inhibitory Concentration (MIC): +++ (MIC ≦ 4)
E. faecalis ATCC 29212
  Minimum Inhibitory Concentration (MIC): +++ (MIC ≦ 4)
S. pneumoniae ATCC 49619
  Minimum Inhibitory Concentration (MIC): + (12 ≦ MIC ≦ 32)
B. cereus ATCC 11778
  Minimum Inhibitory Concentration (MIC): +++ (MIC ≦ 4)
C. albicans ATCC 38247
  Minimum Inhibitory Concentration (MIC): + (12 ≦ MIC ≦ 32)
E. coli ATCC 25922
  Minimum Inhibitory Concentration (MIC): + (12 ≦ MIC ≦ 32)

## Cc1ccc2nc(-c3ccc(NC(=O)c4nsc(NCCN)c4Cl)cc3)sc2c1 [Compound A-52]
S. aureus ATCC 13709
  Minimum Inhibitory Concentration (MIC): +++ (MIC ≦ 4)
S. aureus ATCC 33591
  Minimum Inhibitory Concentration (MIC): +++ (MIC ≦ 4)
E. faecalis ATCC 29212
  Minimum Inhibitory Concentration (MIC): +++ (MIC ≦ 4)
S. pneumoniae ATCC 49619
  Minimum Inhibitory Concentration (MIC): >32 µg/mL
B. cereus ATCC 11778
  Minimum Inhibitory Concentration (MIC): + (12 ≦ MIC ≦ 32)
C. albicans ATCC 38247
  Minimum Inhibitory Concentration (MIC): >32 µg/mL
E. coli ATCC 25922
  Minimum Inhibitory Concentration (MIC): >32 µg/mL

## NCCCCNc1snc(C(=O)Nc2ccc(-c3cc4ccccc4o3)cc2)c1Cl [Compound A-4]
S. aureus ATCC 27660
  Minimum Inhibitory Concentration (MIC): +++ (MIC ≦ 4)
S. aureus ATCC 13709
  Minimum Inhibitory Concentration (MIC): +++ (MIC ≦ 4)
E. faecalis ATCC 29212
  Minimum Inhibitory Concentration (MIC): +++ (MIC ≦ 4)
S. pneumoniae ATCC 49619
  Minimum Inhibitory Concentration (MIC): >32 µg/mL
B. cereus ATCC 11778
  Minimum Inhibitory Concentration (MIC): + (12 ≦ MIC ≦ 32)
C. albicans ATCC 38247
  Minimum Inhibitory Concentration (MIC): + (12 ≦ MIC ≦ 32)
E. coli ATCC 25922
  Minimum Inhibitory Concentration (MIC): >32 µg/mL

From US7498349B2, “Biaryl compounds having anti-infective activity” (Genesoft Pharmaceuticals, Inc., priority 2002, dated 2009)
